Assay results taken from patent US10487054B2, “Therapeutic compounds” (REGENTS OF THE UNIVERSITY OF MINNESOTA, priority 2017, dated 2019).

Columns and labels:
JB6 P+ cells = experiment: Western blot of SUV-induced TOPK downstream signaling; assay type: cell-based, mouse
Description: The cells were cultured, treated for 4 h with different concentrations of compound 1 and then exposed to SUV (60 kJ UVA/m^2 and 2.9 kJ UVB/m^2), followed by an additional 15-minute incubation. Cells were harvested and the levels of phosphorylated and total proteins were determined by Western blot analysis with specific antibodies as indicated. […] The cells were cultured and treated with different concentrations of compound 1 for 24 h. Cells were harvested and the levels of phosphorylated and total proteins were determined by Western blot analysis with specific antibodies as indicated. […] For the luciferase assay, JB6 P+ cells stably transfected with an AP-1 luciferase reporter plasmid were cultured. […] Luciferase activity was measured and AP-1 activity is expressed relative to control cells without SUV treatment. […] Luciferase and 3-galactosidase activities were measured using reagents included in the reporter assay system (right). […] Significant differences were evaluated using one-way ANOVA and the asterisks (*) indicate a significant effect (*, p<0.05; **, p<0.001; ***, p<0.0001). […]
HaCaT or JB6 P+ cells (1×10^6) were cultured in 10-cm dishes for 24 h and then the medium was replaced with 0.1% FBS medium for 24 h. […] Protein concentration in cell lysates was determined using a protein assay kit (Bio-Rad Laboratories, Hercules, Calif.). […]

active TOPK = target: T1, active TOPK (Homo sapiens, UniProt Q96KB5); experiment: ATP competition pull-down assay with compound 1-conjugated Sepharose 4B beads; assay type: binding; settings: ATP 0, 10 or 100 μM; active TOPK 200 ng
T1 construct: purchased SignalChem (Richmond, BC, Canada)
T1 sequence (Q96KB5 1-322): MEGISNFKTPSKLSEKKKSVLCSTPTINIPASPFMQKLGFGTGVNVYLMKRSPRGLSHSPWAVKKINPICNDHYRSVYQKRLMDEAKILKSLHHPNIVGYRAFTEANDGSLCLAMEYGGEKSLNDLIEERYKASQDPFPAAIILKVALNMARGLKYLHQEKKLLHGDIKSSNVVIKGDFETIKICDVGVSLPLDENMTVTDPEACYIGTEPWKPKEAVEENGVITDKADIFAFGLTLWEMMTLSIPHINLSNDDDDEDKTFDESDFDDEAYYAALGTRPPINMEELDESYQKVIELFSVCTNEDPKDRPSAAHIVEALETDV
Description: Active TOPK (200 ng) was incubated with different concentrations of ATP (0, 10 or 100 μM) and then mixed with compound 1-conjugated Sepharose 4B beads or Sepharose 4B beads. Proteins were pulled down and analyzed by Western blot. Data are representative of 3 independent experiments that gave similar results. FIGS. 2C and 2D show compound 1 binds to either TOPK (2C) or MEK1/2 (2D) ex vivo. Lysates from HaCaT cells (500 μg) were incubated with compound 1-conjugated Sepharose 4B beads or Sepharose 4B beads alone and the pulled-down proteins were analyzed by Western blot. Data are representative of 3 independent experiments that gave similar results. FIGS. 2E and 2F show compound 1 inhibits TOPK kinase (2E) activity but not MEK1 kinase (2F) activity in vitro. Active TOPK (200 ng) was mixed with compound 1 (0, 0.5, 1, 3, or 5 μM) or HI-032 (TOPK inhibitor, 10 μM) and then incubated with a [γ-^32P] ATP mixture. Similarly, MEK1 (200 ng) was mixed with compound 1 (0, 0.5, 1, 3, 5, or 10 μM) or PD098059 (MEK1 inhibitor, 5 μM) and then incubated with a [γ-^32P] ATP mixture. For 2E and 2F, the results are visualized by autoradiography and Coomassie blue staining serves as a loading control. Data are representative of 3 independent experiments that gave similar results. […]

binding ability with TOPK in presence of ATP (active TOPK): altered in the presence of ATP
Structure (SMILES): O=C1Nc2ccc(C34CC5CC(CC(C5)C3)C4)cc2C1=NO [compound 1, 5-(adamantan-1-yl)-3-(hydroxyimino)indolin-2-one]
phosphorylated c-Jun protein levels (JB6 P+ cells; JB6 P+ cells exposed to SUV): significantly suppressed
phosphorylation of ERK1/2, p38, and JNKs (JB6 P+ cells; JB6 P+ cells, 4 h treatment then SUV (60 kJ UVA/m2 and 2.9 kJ UVB/m2)): markedly suppressed
